Data on 11 compounds can be found in paper PMC8000592, “Discovery and Optimization of Selective Inhibitors of Meprin α (Part I)” (Pharmaceuticals, 2021).

Data set [1] deals with T1, meprin α (Homo sapiens, UniProt Q16819).
T1 sequence (Q16819 66-593 limits assumed): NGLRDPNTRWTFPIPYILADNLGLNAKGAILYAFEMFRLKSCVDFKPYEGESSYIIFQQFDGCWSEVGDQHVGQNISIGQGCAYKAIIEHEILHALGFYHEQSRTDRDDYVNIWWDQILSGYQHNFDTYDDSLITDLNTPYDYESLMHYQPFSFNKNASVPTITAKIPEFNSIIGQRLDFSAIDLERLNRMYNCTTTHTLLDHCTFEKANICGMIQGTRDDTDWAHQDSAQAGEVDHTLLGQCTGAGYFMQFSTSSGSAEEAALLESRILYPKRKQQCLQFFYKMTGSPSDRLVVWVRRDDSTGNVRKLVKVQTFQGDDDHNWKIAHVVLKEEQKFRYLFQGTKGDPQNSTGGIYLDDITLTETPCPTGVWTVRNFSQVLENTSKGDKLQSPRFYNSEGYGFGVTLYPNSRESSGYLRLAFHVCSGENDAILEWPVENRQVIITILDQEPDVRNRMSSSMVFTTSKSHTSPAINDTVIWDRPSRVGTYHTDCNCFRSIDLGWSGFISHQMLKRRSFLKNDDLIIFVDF
Briefly: Meprin α assay, fluorogenic substrate (Mca)-YVADAPK-(K-ε-Dnp), 384 and 1536 well plate formats. In kind it is biochemical. Conditions: for selectivity for meprin α: versus meprin β, in words. From the text:
The meprin α and meprin β assays, which utilize the substrates (Mca)-YVADAPK-(K-ε-Dnp) and (Mca)-EDEDED-(K-ε-Dnp), respectively, have been described previously. To enable an ultra-high-throughput screening (uHTS) campaign, we proceeded to miniaturize both assays to 1536 well plate format (wpf). First, we recapitulated the assays in 1536 well plate using reagents at the same concentrations as in 384 well plate format assays by scaling the volume down by the factor of 2.5.
Both assays followed the same general protocol. A 5 µL measure of 2 × enzyme solution (2.6 and 0.1 nM for meprin α and meprin β, respectively) in assay buffer (50 mM Hepes, 0.01% Brij-35, pH 7.5) was added to solid bottom black 384 low volume plates (Nunc, cat# 264705). Next, 75 nL of test compounds or pharmacological control (actinonin or NFF449) were added to corresponding wells using a 384-pin tool device (V&P Scientific, San Diego, CA, USA). After 30 min incubation at RT, the reactions were started by addition of 5 µL of 2 × solutions of substrates (20 µM, mepin α substrate Mca-YVADAPK-K(Dnp) or meprin β substrate Mca-EDEDED-K(Dnp)). Reactions were incubated at RT for 1 h, after which the fluorescence was measured using the Synergy H4 multimode microplate reader (Biotek Instruments) (λexcitation = 324 nm, λemission = 390 nm).
Both assays followed the same general protocol. A 2 µL portion of 2 × enzyme solution (1.3 and 0.0125 nM for meprin α and meprin β, respectively) in assay buffer (50 mM Hepes, 0.01% Brij-35, pH 7.5) was added to solid bottom black 1536 low volume plates (Corning cat# 7261). Next, 30 nL of test compounds or pharmacological control (actinonin or NFF449) was added to corresponding wells using a 1536 pin tool device (V&P Scientific, San Diego). After 30 min incubation at RT, the reactions were started by addition of 2 µL of 2x solutions of substrates (20 µM, meprin α substrate Mca-YVADAPK-K(Dnp) or meprin β substrate Mca-EDEDED-K(Dnp)). Reactions were incubated at RT for 1 h, after which the fluorescence was measured using the Viewlux multimode microplate reader (Perkin Elmer) (λexcitation = 324 nm, λemission = 390 nm).
The miniaturized 1536-well plate format meprin α and meprin β assays were used to screen a collection of approximately 650,000 compounds (The Scripps Research library, La Jolla, CA, USA) on the automated Kalypsys/GNF platform at The Scripps Research Molecular Screening Center (SRMSC, Jupiter, FL, USA: http://hts.florida.scripps.edu/). Both uHTS campaigns were run separately but in a similar manner. Briefly, the first step was the primary screen of all test compounds as singlicates against the meprin α and meprin β target at a final concentration of 7.0 μM. Next, compounds selected as primary hits were cherry-picked and retested in triplicate against the primary screen target and its antitarget (meprin α for the meprin β screening effort, and vice versa) at a same final concentration of 7.0 μM. The additional counter screen assays against related metzincins (MMP-8, MMP-14, and ADAM10) were performed in triplicate at a final concentration of 7.0 μM. The final step was the titration of selected hits as 10-point, 1:3 serial dilutions in both the target and antitarget assay, starting at a final nominal concentration of 17 μM. […] Wells treated with DMSO only were used as negative controls and 0% inhibition reference. […] All data generated during this effort were uploaded to the SRMSC’s institutional screening database (Assay Explorer, Symyx). Sample to background (S/B) ratios, as well as Z and Z’ values, were calculated on a per plate basis as described 14. Curve fitting and resulting IC50 determinations were performed as previously reported.

In data set [2] the target is meprin β. Conditions: cited from earlier work.
The test system of data set [3] is MMP and ADAM. Conditions: cited from earlier work.
For data set [4], the system named is BJ skin fibroblasts and primary melanocytes. Briefly: Cell toxicity studies (CellTiter-Glo, 72 h). In kind it is cell-based. To be noted: skin fibroblast and melanocyte viability. On the procedure:
We also tested representative compounds from each scaffold for effects on skin fibroblast and melanocyte viability to ascertain cytotoxicity towards various skin cell types.
Test compounds were solubilized in 100% DMSO and added to polypropylene 384 well plates (Greiner cat# 781280). The 1250 of BJ skin fibroblasts (ATCC CRL-2522) and primary melanocytes (ATCC PCS-200-013) were plated in 384 well plates in 8 µL of serum-free media […]. Test compounds and pharmacological assay control (lapatinib) were prepared as 10-point, 1:3 serial dilutions starting at 10 mM, then added to the cells using the pin tool mounted on the Integra 384. Plates were incubated for 72 h at 37 °C, 5% CO2 and 95% relative humidity. […] Luminescence was recorded using a Biotek Synergy H1 multimode microplate reader. Viability was expressed as a percentage relative to wells containing media only (0%) and wells containing cells treated with DMSO only (100%). Three parameters were calculated on a per plate basis: (a) the signal-to-background ratio (S/B); (b) the coefficient for variation (CV; CV = (standard deviation/mean) × 100)) for all compound test wells; and (c) the Z’-factor. IC50 values were calculated by fitting normalized data to sigmoidal log versus response equation utilizing nonlinear regression analysis from GraphPad Prizm 8.

The mark [5] stands for this setting: triplicate, 10-point, 3:1 serial dilution, highest concentration 17.4 µM, read-out: Meprin α IC50.

Read-outs that look alike come from different tables or passages of the source.

Usually IC50 stands for the concentration that inhibits the measured activity by half. On to `O=[N+]([O-])c1ccc(CN2CCC3(CCc4ccccc43)CC2)o1` [SR207820], for which the concentration for half-maximal inhibition (IC50) in data set [1] (setting [5]) is greater than 17000 nM.

Consider `O=C(COc1ccc(Cl)cc1Cl)NO` [Compound 1596857], for which the IC50 in data set [1] amounted to 1180 nM.

For the compound `COc1ccc(-n2c(CSc3ncccn3)nnc2SCC(=O)NO)cc1` [Compound 19855], the “selectivity for meprin α” value in data set [1] is “show selectivity for meprin α”.

For `COc1cc(OC)cc(C(=O)CNc2nnc(SCC(=O)NO)s2)c1` [Compound 19849], in data set [1] (setting [5]), the IC50 turned out to be 218 nM.

Turning to `O=C(CSc1nnc(NC(=O)c2ccccc2)s1)NO` [Compound 19847], the IC50 in data set [1] (setting [5]) was 892 nM.

For `CSc1nnc2c(n1)OC(c1ccc([N+](=O)[O-])o1)Nc1ccccc1-2` (stereo not drawn) [SR412882], the IC50 in data set [1] (setting [5]) was greater than 17000 nM.

For orientation: Ki means a dissociation constant, usually derived from enzyme kinetics or from competition with a known ligand. Regarding `O=C(Nc1cc(C(=O)Nc2ccc(S(=O)(=O)O)cc2S(=O)(=O)O)cc(C(=O)Nc2ccc(S(=O)(=O)O)cc2S(=O)(=O)O)c1)Nc1cc(C(=O)Nc2ccc(S(=O)(=O)O)cc2S(=O)(=O)O)cc(C(=O)Nc2ccc(S(=O)(=O)O)cc2S(=O)(=O)O)c1` [NFF449], the IC50 in data set [1] (Meprin α 384 wpf, read-out: IC50) is greater than 100000 nM; in data set [1] (Meprin α 1536 wpf, read-out: IC50), greater than 100000 nM. For the same compound, the Ki in data set [2] is 22 nM. For the same compound, the “selectivity against adamalysins and matrixins” value in data set [3] is given as “good selectivity”.

`O=C(CSc1nnc(NC(=O)COc2ccccc2)s1)NO` [Compound 19848]: the IC50 in data set [1] (setting [5]) came out at 335 nM.

Consider `O=C(CCN(Cc1ccccc1)S(=O)(=O)c1ccc(F)cc1)NO` [Compound 162808], for which, in data set [1], the “selectivity against meprin β and other tested metzincins” value is greater than 30 fold; the “selectivity for meprin α” value is on record as “show selectivity for meprin α”. Besides, in data set [1] (meprin α versus meprin β), the “Selectivity Fold” value was 38 fold. For the same compound, the IC50 in data set [1] (setting [5]) was 446 nM. For the same compound, the “cytotoxicity (effect on cell viability)” value in data set [4] is listed as “no cytotoxicity”.

As for `O=C(CCN(Cc1cccs1)S(=O)(=O)c1ccc([N+](=O)[O-])cc1)NO` [Compound 162799], in data set [1], the “selectivity against meprin β and other tested metzincins” value is greater than 30 fold; the “selectivity for meprin α” value is reported as “show selectivity for meprin α”. Moreover, the “Meprin α IC50” value in data set [1] (triplicate, 10-point, 3:1 serial dilution, highest concentration 17.4 µM) is on record as “sub-micromolar”. Also, the IC50 in data set [1] (setting [5]) was 564 nM.

Regarding `O=C(c1ccc(C(=O)O)c([N+](=O)[O-])c1)c1ccc(C(=O)O)c([N+](=O)[O-])c1` [SR355996], the IC50 in data set [1] (setting [5]) was greater than 17000 nM.
